Among the data in patent EP4793641A1, “NOVEL METHOD FOR ANALYZING BIOMOLECULAR INTERACTIONS” (Kyoto University, priority 2023, dated 2025) are Inhibitory activity and IC50 values, retold here.

Non-standard residues stand in square brackets, D forms with d. Residues, ends and D or L forms follow the SMILES beside them. *: point of attachment. pS = N[C@@H](COP(=O)(O)O)C(=O)O; Meb = Cc1ccc(C*)cc1; Acm = CC(=O)NC*; tBu = CC(C)(C)*; Cam = NC(=O)C*

One assay addresses T1, interactions between Talin 1 (TLN1) and integrin subunit beta (ITGB) (Homo sapiens, UniProt Q9Y490).
T1 construct: LgBit or SmBit (N-terminal of the HaloTag); made in house
Nature of the assay: Flip-flop detection mechanism on DNA origami (LgBit/SmBit luminescence), inhibitor screening. In kind it is biochemical. The settings on record: inhibition of binding between TLN1 and ITBG. The text has this: Two types of systems, i.e., flip-flop detection mechanism and switch detection mechanism, were constructed by using HaloTag, LgBit, SmBit, TLN1, and ITGB. Each of TLN1 (Uniprot ID: Q9Y490) and ITGB1 (Uniprot ID: P05556) was cloned from the registered genetic information. HaloTAg has three chemically modifiable locations at a ligand recognition site, C-terminus, and N-terminus. In this Example, a single-stranded DNA for attaching to DNA origami was connected to a ligand recognition site of HaloTag, a subunit of an interaction complex was connected to the C-terminus, and LgBit or SmBit was connected to the N-terminus.
The outline of the system is disclosed in Figure 23. When TLN1 and ITBG are in a bound state in this system, LgBit and SmBit are at spatially separated positions from each other, with a HaloTag interposed therebetween. In this regard, if an inhibitor is added, complex formation of TLN1 and ITBG is inhibited. As a result, a LgBit-SmBit complex can be formed, and a luminescence reaction progresses.
As a candidate drug for inhibiting the binding between TLN1 and ITBG, peptide inhibitors consisting of 13 amino acids prepared by modifying amino acids in an intracellular region of ITGB3 have been designed (Shen B. et al., A directional switch of integrin signaling and a new antithrombotic strategy. Nature 503, 131-135 (2013)). IC50 values for the peptides shown in the following table were calculated by using the flip-flop detection mechanism described in Example 11 for optimizing the sequence. In this manner, the effect of a large number of compounds on the interaction with a target protein can be readily analyzed in the system of the present disclosed.
In the case of `CSCC[C@H](NC(=O)[C@H](Cc1c[nH]c2ccccc12)NC(=O)[C@H](CCCCN)NC(=O)[C@H](CS)NC(=O)[C@H](CC(N)=O)NC(=O)[C@H](CCSC)NC(=O)[C@H](CCCCN)NC(=O)[C@H](CCC(=O)O)NC(=O)[C@H](CCCCN)NC(=O)[C@H](CCC(=O)O)NC(=O)[C@@H](N)Cc1ccccc1)C(=O)O` [FIYM24] (H-FEKEKMNCKWM-OH), the Inhibitory activity result is reported as “no inhibition”.

With `CSCC[C@H](NC(=O)[C@H](CCCNC(=N)N)NC(=O)[C@H](CCC(=O)O)NC(=O)[C@@H](N)Cc1ccccc1)C(=O)N[C@@H](CC(N)=O)C(=O)N[C@@H](CS)C(=O)N[C@@H](CCCCN)C(=O)N[C@@H](Cc1c[nH]c2ccccc12)C(=O)N[C@@H](CCSC)C(=O)N[C@H](C(=O)O)[C@@H](C)O` [FIYM25] (H-FERMNCKWMT-OH), the Inhibitory activity result is reported as “no inhibition”. As for `CSCC[C@H](NC(=O)[C@H](CCCNC(=N)N)NC(=O)[C@H](CCC(=O)O)NC(=O)[C@H](CCCCN)NC(=O)[C@H](CCC(=O)O)NC(=O)[C@H](Cc1ccccc1)NC(=O)[C@@H](N)CCCCN)C(=O)N[C@@H](CC(N)=O)C(=O)N[C@@H](CS)C(=O)N[C@@H](CCCCN)C(=O)N[C@@H](Cc1c[nH]c2ccccc12)C(=O)N[C@@H](CCSC)C(=O)N[C@H](C(=O)O)[C@@H](C)O` [FIYM28] (H-KFEKERMNCKWMT-OH), the Inhibitory activity entry is given as “no inhibition”. `CSCC[C@H](NC(=O)[C@H](CCCCN)NC(=O)[C@H](CCC(=O)O)NC(=O)[C@H](CCCCN)NC(=O)[C@H](CCC(=O)O)NC(=O)[C@H](Cc1ccccc1)NC(=O)[C@@H](N)CCCCN)C(=O)N[C@@H](CCSC)C(=O)N[C@@H](CS)C(=O)N[C@@H](CCCCN)C(=O)N[C@@H](Cc1c[nH]c2ccccc12)C(=O)N[C@@H](CCSC)C(=O)N[C@H](C(=O)O)[C@@H](C)O` [FIYM29] (H-KFEKEKMMCKWMT-OH): the Inhibitory activity result is on record as “no inhibition”. `CSCC[C@H](NC(=O)[C@H](CCCNC(=N)N)NC(=O)[C@H](CCC(=O)O)NC(=O)[C@H](CCCCN)NC(=O)[C@H](CCC(=O)O)NC(=O)[C@H](Cc1ccccc1)NC(=O)[C@@H](N)CCCNC(=N)N)C(=O)N[C@@H](CC(N)=O)C(=O)N[C@@H](CS)C(=O)N[C@@H](CCCCN)C(=O)N[C@@H](Cc1c[nH]c2ccccc12)C(=O)N[C@@H](CCSC)C(=O)N[C@H](C(=O)O)[C@@H](C)O` [FIYM30] (H-RFEKERMNCKWMT-OH): the Inhibitory activity result is “no inhibition”. Still for that read-out and setting: under `CSCC[C@H](NC(=O)[C@H](CCCCN)NC(=O)[C@H](CCC(=O)O)NC(=O)[C@H](CCCNC(=N)N)NC(=O)[C@H](CCC(=O)O)NC(=O)[C@H](Cc1ccccc1)NC(=O)[C@@H](N)CCCCN)C(=O)N[C@@H](CCSC)C(=O)N[C@@H](CS)C(=O)N[C@@H](CCCCN)C(=O)N[C@@H](Cc1c[nH]c2ccccc12)C(=O)N[C@@H](CCSC)C(=O)N[C@H](C(=O)O)[C@@H](C)O` [FIYM32] (H-KFEREKMMCKWMT-OH) stands “no inhibition”; under `CSCC[C@H](NC(=O)[C@H](CCCNC(=N)N)NC(=O)[C@H](CCC(=O)O)NC(=O)[C@H](CCCCN)NC(=O)[C@H](CCC(=O)O)NC(=O)[C@H](Cc1ccccc1)NC(=O)[C@@H](N)CCCCN)C(=O)N[C@@H](CCSC)C(=O)N[C@@H](CS)C(=O)N[C@@H](CCCCN)C(=O)N[C@@H](Cc1c[nH]c2ccccc12)C(=O)N[C@@H](CCSC)C(=O)N[C@H](C(=O)O)[C@@H](C)O` [FIYM33] (H-KFEKERMMCKWMT-OH), “no inhibition”; under `CSCC[C@H](NC(=O)[C@H](CCCCN)NC(=O)[C@H](CCC(=O)O)NC(=O)[C@H](CCCCN)NC(=O)[C@H](CCC(=O)O)NC(=O)[C@H](Cc1ccccc1)NC(=O)[C@@H](N)CCCCN)C(=O)N[C@@H](CC(N)=O)C(=O)N[C@H](C(=O)N[C@@H](CCCCN)C(=O)N[C@@H](Cc1c[nH]c2ccccc12)C(=O)N[C@@H](CCSC)C(=O)N[C@H](C(=O)O)[C@@H](C)O)[C@@H](C)O` [FIYM34] (H-KFEKEKMNTKWMT-OH), “no inhibition”. Regarding `CSCC[C@H](NC(=O)[C@H](CCCCN)NC(=O)[C@H](CCC(=O)O)NC(=O)[C@H](CCCCN)NC(=O)[C@H](CCC(=O)O)NC(=O)[C@H](Cc1ccccc1)NC(=O)[C@@H](N)CCCCN)C(=O)N[C@@H](CC(N)=O)C(=O)N[C@@H](CCSC)C(=O)N[C@@H](CCCCN)C(=O)N[C@@H](Cc1c[nH]c2ccccc12)C(=O)N[C@@H](CCSC)C(=O)N[C@H](C(=O)O)[C@@H](C)O` [FIYM35] (H-KFEKEKMNMKWMT-OH), the Inhibitory activity result is “no inhibition”. On to `CSCC[C@H](NC(=O)[C@H](CCCCN)NC(=O)[C@H](CCC(=O)O)NC(=O)[C@H](CCCCN)NC(=O)[C@H](CCC(=O)O)NC(=O)[C@H](Cc1ccccc1)NC(=O)[C@@H](N)CCCCN)C(=O)N[C@@H](CC(N)=O)C(=O)N[C@@H](COP(=O)(O)O)C(=O)N[C@@H](CCCCN)C(=O)N[C@@H](Cc1c[nH]c2ccccc12)C(=O)N[C@@H](CCSC)C(=O)N[C@H](C(=O)O)[C@@H](C)O` [FIYM36] (H-KFEKEKMN[pS]KWMT-OH), for which the Inhibitory activity entry is reported as “no inhibition”.

As to `CSCC[C@H](NC(=O)[C@H](CCCCN)NC(=O)[C@H](CCC(=O)O)NC(=O)[C@H](CCCCN)NC(=O)[C@H](CCC(=O)O)NC(=O)[C@H](Cc1ccccc1)NC(=O)[C@@H](N)CCCCN)C(=O)N[C@@H](CC(N)=O)C(=O)N[C@@H](CSCNC(C)=O)C(=O)N[C@@H](CCCCN)C(=O)N[C@@H](Cc1c[nH]c2ccccc12)C(=O)N[C@@H](CCSC)C(=O)N[C@H](C(=O)O)[C@@H](C)O` [FIYM38] (H-KFEKEKMNC(Acm)KWMT-OH), the Inhibitory activity result was “no inhibition”. Consider `CSCC[C@H](NC(=O)[C@H](CCCCN)NC(=O)[C@H](CCC(=O)O)NC(=O)[C@H](CCCCN)NC(=O)[C@H](CCC(=O)O)NC(=O)[C@H](Cc1ccccc1)NC(=O)[C@@H](N)CCCCN)C(=O)N[C@@H](CC(N)=O)C(=O)N[C@@H](CSCc1ccc(C)cc1)C(=O)N[C@@H](CCCCN)C(=O)N[C@@H](Cc1c[nH]c2ccccc12)C(=O)N[C@@H](CCSC)C(=O)N[C@H](C(=O)O)[C@@H](C)O` [FIYM41] (H-KFEKEKMNC(Meb)KWMT-OH), for which the Inhibitory activity entry is reported as “no inhibition”.

The same assay, now with this note: inhibition of binding between TLN1 and ITBG, read-out: Inhibitory activity.
Consider `CSCC[C@H](NC(=O)[C@H](Cc1c[nH]c2ccccc12)NC(=O)[C@H](CCCCN)NC(=O)[C@H](CS)NC(=O)[C@H](CC(N)=O)NC(=O)[C@H](CCSC)NC(=O)[C@H](CCCCN)NC(=O)[C@H](CCC(=O)O)NC(=O)[C@H](CCCCN)NC(=O)[C@H](CCC(=O)O)NC(=O)[C@H](Cc1ccccc1)NC(=O)[C@@H](N)CCCCN)C(=O)O` [FIYM22] (H-KFEKEKMNCKWM-OH), for which the IC50 was determined as 472 µM. As for `CSCC[C@H](NC(=O)[C@H](CCCCN)NC(=O)[C@H](CCC(=O)O)NC(=O)[C@H](CCCCN)NC(=O)[C@H](CCC(=O)O)NC(=O)[C@@H](N)Cc1ccccc1)C(=O)N[C@@H](CC(N)=O)C(=O)N[C@@H](CS)C(=O)N[C@@H](CCCCN)C(=O)N[C@@H](Cc1c[nH]c2ccccc12)C(=O)N[C@@H](CCSC)C(=O)N[C@H](C(=O)O)[C@@H](C)O` [FIYM23] (H-FEKEKMNCKWMT-OH), the IC50 was 444 µM. With `CSCC[C@H](NC(=O)[C@H](CCCCN)NC(=O)[C@H](CCC(=O)O)NC(=O)[C@H](CCCCN)NC(=O)[C@H](CCC(=O)O)NC(=O)[C@H](Cc1ccccc1)NC(=O)[C@@H](N)CCCNC(=N)N)C(=O)N[C@@H](CC(N)=O)C(=O)N[C@@H](CS)C(=O)N[C@@H](CCCCN)C(=O)N[C@@H](Cc1c[nH]c2ccccc12)C(=O)N[C@@H](CCSC)C(=O)N[C@H](C(=O)O)[C@@H](C)O` [FIYM26] (H-RFEKEKMNCKWMT-OH), the IC50 came to 76.9 µM. Turning to `CSCC[C@H](NC(=O)[C@H](CCCCN)NC(=O)[C@H](CCC(=O)O)NC(=O)[C@H](CCCNC(=N)N)NC(=O)[C@H](CCC(=O)O)NC(=O)[C@H](Cc1ccccc1)NC(=O)[C@@H](N)CCCCN)C(=O)N[C@@H](CC(N)=O)C(=O)N[C@@H](CS)C(=O)N[C@@H](CCCCN)C(=O)N[C@@H](Cc1c[nH]c2ccccc12)C(=O)N[C@@H](CCSC)C(=O)N[C@H](C(=O)O)[C@@H](C)O` [FIYM27] (H-KFEREKMNCKWMT-OH), the IC50 turned out to be 94.7 µM.

On to `CSCC[C@H](NC(=O)[C@H](CCCCN)NC(=O)[C@H](CCC(=O)O)NC(=O)[C@H](CCCCN)NC(=O)[C@H](CCC(=O)O)NC(=O)[C@H](Cc1ccccc1)NC(=O)[C@@H](N)CCCCN)C(=O)N[C@@H](CC(N)=O)C(=O)N[C@@H](CSCC(N)=O)C(=O)N[C@@H](CCCCN)C(=O)N[C@@H](Cc1c[nH]c2ccccc12)C(=O)N[C@@H](CCSC)C(=O)N[C@H](C(=O)O)[C@@H](C)O` [FIYM39] (H-KFEKEKMNC(Cam)KWMT-OH), for which the IC50 turned out to be 131 µM. As to `CSCC[C@H](NC(=O)[C@H](CCCCN)NC(=O)[C@H](CCC(=O)O)NC(=O)[C@H](CCCCN)NC(=O)[C@H](CCC(=O)O)NC(=O)[C@H](Cc1ccccc1)NC(=O)[C@@H](N)CCCCN)C(=O)N[C@@H](CC(N)=O)C(=O)N[C@@H](CSC(C)(C)C)C(=O)N[C@@H](CCCCN)C(=O)N[C@@H](Cc1c[nH]c2ccccc12)C(=O)N[C@@H](CCSC)C(=O)N[C@H](C(=O)O)[C@@H](C)O` [FIYM40] (H-KFEKEKMNC(tBu)KWMT-OH), the IC50 was determined as 110 µM.
